Source: patent US8722849B2, “Polypeptides” (Novo Nordisk A/S, priority 2011, dated 2014)
In brackets after ≈: the same amount, converted by molar mass. Like-named read-outs stand apart in the source and are kept apart here. Starred links: 1 amine or outer side, 2 acyl side, 3 side chain; linkers in the order of their positions; H or OH if unused. Positions of bridges follow the written chain, without caps; N, C: chain ends. Residues, ends and D or L forms follow the SMILES beside them. Groups on a side chain read outwards from the residue. *: point of attachment. C20 diacid = O=C(O)CCCCCCCCCCCCCCCCCCC(=O)*; C18 diacid = O=C(O)CCCCCCCCCCCCCCCCC(=O)*; γGlu = O=C(O)[C@H](CCC(=O)[*:2])N[*:1]; AEEA = NCCOCCOCC(=O)O

Experiments:
[1] = target: T1, human calcitonin receptor (Homo sapiens, UniProt P30988); experiment: Assay (II)a functional CRE-luciferase assay, human calcitonin receptor; format: cell-based
T1 construct: expressed in transfected cells; host or cells: BHK570
T1 sequence (P30988 25-474): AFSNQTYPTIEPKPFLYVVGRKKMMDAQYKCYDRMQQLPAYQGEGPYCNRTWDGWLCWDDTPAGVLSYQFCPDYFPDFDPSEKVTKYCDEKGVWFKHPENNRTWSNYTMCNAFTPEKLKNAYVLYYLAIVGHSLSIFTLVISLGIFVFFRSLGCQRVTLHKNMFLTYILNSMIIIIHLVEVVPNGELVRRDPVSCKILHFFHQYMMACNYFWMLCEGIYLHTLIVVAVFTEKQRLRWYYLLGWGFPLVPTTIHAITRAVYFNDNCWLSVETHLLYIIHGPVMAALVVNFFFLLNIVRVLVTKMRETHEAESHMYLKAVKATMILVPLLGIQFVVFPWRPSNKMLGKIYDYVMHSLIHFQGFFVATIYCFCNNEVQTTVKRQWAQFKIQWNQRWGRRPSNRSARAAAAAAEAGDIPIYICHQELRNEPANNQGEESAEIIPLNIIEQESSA

[2] = target: T2, human amylin receptor (amylin 3(a) receptor: human calcitonin receptor + RAMP-3) (Homo sapiens, UniProt O60896+P30988); experiment: Assay (II)a functional CRE-luciferase assay, human amylin receptor; format: cell-based; conditions: Table 2; BHK amylin 3(a)-receptor/CRE-luc cells
T2 construct: expressed in transfected cells; host or cells: BHK570
T2 sequence (P30988 25-474): T1 sequence (P30988 25-474)
T2 sequence (O60896 24-148 partner): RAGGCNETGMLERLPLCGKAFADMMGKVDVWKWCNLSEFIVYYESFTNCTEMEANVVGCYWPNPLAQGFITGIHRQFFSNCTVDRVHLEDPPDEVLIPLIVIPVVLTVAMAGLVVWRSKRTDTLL

[3] = Assay (III) ThT fibrillation assay for physical stability; format: physicochemical
Procedure, shortened: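 Freshly prepared formulations, pH-adjusted, with 1 μM ThT; four or eight replicates incubated at 37 °C under 960 rpm orbital shaking. Fluorescence (ex 444/em 485 nm) read every 20 min; […]. Peptide concentration measured by RP-HPLC before and after the run.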

[4] = Assay (IV) determination of solubility; format: physicochemical
Procedure, shortened: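 Solubility is measured across pH 3.0–8.0 by mixing a ~500 nmol/ml aqueous polypeptide stock 1:1 with 100 mM glycylglycine or bistrispropane buffers. Samples stand 18 hours at room temperature, then are centrifuged and the soluble concentration is determined by HPLC.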

[5] = Table 11, read-out: CTa receptor human EC50
[6] = bistrispropane buffer, pH 6, pH 6.0, read-out: Solubility pH 6.0
[7] = bistrispropane buffer, pH 6.5, pH 6.5, read-out: Solubility pH 6.5
[8] = bistrispropane buffer, pH 7, pH 7.0, 18 hours at room temperature, Table 3, read-out: Solubility pH 7.0
[9] = bistrispropane buffer, pH 7, pH 7.0, Table 8, read-out: Solubility pH 7.0
[10] = bistrispropane buffer, pH 7, pH 7.0, Table 9, read-out: Solubility pH 7.0
[11] = bistrispropane buffer, pH 7, pH 7.0, read-out: Solubility pH 7.0
[12] = bistrispropane buffer, pH 7.5, pH 7.5, Table 9, read-out: Solubility pH 7.5
[13] = bistrispropane buffer, pH 7.5, pH 7.5, read-out: Solubility pH 7.5
[14] = bistrispropane buffer, pH 8, pH 8.0, read-out: Solubility pH 8.0
[15] = glycylglycine buffer, pH 3, pH 3.0, read-out: Solubility pH 3.0
[16] = glycylglycine buffer, pH 4, pH 4.0, 18 hours at room temperature, Table 2, read-out: Solubility pH 4.0
[17] = glycylglycine buffer, pH 4, pH 4.0, read-out: Solubility pH 4.0
[18] = glycylglycine buffer, pH 5, pH 5.0, read-out: Solubility pH 5.0

| SMILES | EC50 [1, 5] | EC50 [2] | ThT pH 4.0 lag time ([3]; Table 8) | ThT pH 4.0 lag time ([3]; Table 9) | ThT pH 4.0 lag time ([3]; ThT fibrillation assay) | ThT pH 4.0 lag time (h) ([3]; ThT fibrillation assay) | solubility at 18 h [4, 6] | solubility at 18 h [4, 7] | solubility at 18 h [4, 8] | solubility at 18 h [4, 9] | solubility at 18 h [4, 10] | solubility at 18 h [4, 11] | solubility at 18 h [4, 12] | solubility at 18 h [4, 13] | solubility at 18 h [4, 14] | solubility at 18 h [4, 15] | solubility at 18 h [4, 16] | solubility at 18 h [4, 17] | solubility at 18 h [4, 18] | EC50 ([1]; Table 7, human calcitonin (CTa) receptor) |
| --- | --- | --- | --- | --- | --- | --- | --- | --- | --- | --- | --- | --- | --- | --- | --- | --- | --- | --- | --- | --- |
| CC[C@H](C)[C@H](NC(=O)[C@@H]1CCCN1C(=O)CNC(=O)[C@H](Cc1ccccc1)NC(=O)[C@H](CC(N)=O)NC(=O)[C@H](CCC(N)=O)NC(=O)[C@H](CO)NC(=O)[C@H](CO)NC(=O)[C@H](Cc1c[nH]cn1)NC(=O)[C@H](CCCNC(=N)N)NC(=O)[C@H](CC(C)C)NC(=O)[C@H](Cc1ccccc1)NC(=O)[C@H](CCC(=O)O)NC(=O)[C@H](C)NC(=O)[C@H](CC(C)C)NC(=O)[C@H](CCCNC(=N)N)NC(=O)[C@H](CCC(N)=O)NC(=O)[C@@H](NC(=O)[C@H](C)NC(=O)[C@@H]1CSSC[C@H](NC(=O)[C@H](CCC(=O)O)NC(=O)[C@H](CCCNC(=N)N)NC(=O)[C@H](CCC(=O)O)NC(=O)CC[C@H](NC(=O)CCCCCCCCCCCCCCCCCCC(=O)O)C(=O)O)C(=O)N[C@@H](CC(N)=O)C(=O)N[C@@H]([C@@H](C)O)C(=O)N[C@@H](C)C(=O)N[C@@H]([C@@H](C)O)C(=O)N1)[C@@H](C)O)C(=O)N[C@@H](CC(C)C)C(=O)N1CCC[C@H]1C(=O)N1CCC[C@H]1C(=O)N[C@H](C(=O)N[C@@H](CC(N)=O)C(=O)N[C@H](C(=O)NCC(=O)N[C@@H](CO)C(=O)N[C@@H](CCC(N)=O)C(=O)N[C@H](C(=O)N1CCC[C@H]1C(N)=O)[C@@H](C)O)C(C)C)[C@@H](C)O [Example 162, N-alpha-[(S)-4-Carboxy-4-(19-carboxynonadecanoylamino)butyryl]-Glu-Arg-[Glu1,Glu14,Arg17,Gln21,Gln35,Pro37]-pramlintide] ({C20 diacid-γGlu}-ERECNTATCATQRLAEFLRHSSQNFGPILPPTNVGSQTP-NH2; disulfide 4-9) | 2.19 nM | 0.411 nM | >45 h | >45 h | >45 h | >45 h | > 200 µM | > 200 µM | > 200 µM | > 200 µM | > 200 µM | > 200 µM | > 200 µM | > 200 µM | > 200 µM | > 200 µM | > 200 µM | > 200 µM | > 200 µM |  |
| CC[C@H](C)[C@H](NC(=O)[C@@H]1CCCN1C(=O)CNC(=O)[C@H](Cc1ccccc1)NC(=O)[C@H](CC(N)=O)NC(=O)[C@H](CO)NC(=O)[C@H](CO)NC(=O)[C@H](CO)NC(=O)[C@H](Cc1c[nH]cn1)NC(=O)[C@H](CCCCNC(=O)COCCOCCNC(=O)COCCOCCNC(=O)CC[C@H](NC(=O)CCCCCCCCCCCCCCCCC(=O)O)C(=O)O)NC(=O)[C@H](CC(C)C)NC(=O)[C@H](Cc1ccccc1)NC(=O)[C@H](CCC(=O)O)NC(=O)[C@H](C)NC(=O)[C@H](CC(C)C)NC(=O)[C@H](CCCNC(=N)N)NC(=O)[C@H](CCC(N)=O)NC(=O)[C@@H](NC(=O)[C@H](C)NC(=O)[C@@H]1CSSC[C@H](NC(=O)[C@@H](N)CCCCN)C(=O)N[C@@H](CC(N)=O)C(=O)N[C@@H]([C@@H](C)O)C(=O)N[C@@H](C)C(=O)N[C@@H]([C@@H](C)O)C(=O)N1)[C@@H](C)O)C(=O)N[C@@H](CC(C)C)C(=O)N1CCC[C@H]1C(=O)N1CCC[C@H]1C(=O)N[C@H](C(=O)N[C@@H](CC(N)=O)C(=O)N[C@H](C(=O)NCC(=O)N[C@@H](CO)C(=O)N[C@@H](CCC(=O)O)C(=O)N[C@H](C(=O)N[C@@H](Cc1ccc(O)cc1)C(N)=O)[C@@H](C)O)C(C)C)[C@@H](C)O [Example 83, N-epsilon17-[2-(2-{2-[2-(2-{2-[(S)-4-Carboxy-4-(17-carboxyheptadecanoylamino)butyrylamino]ethoxy}ethoxy)acetylamino]ethoxy}ethoxy)acetyl]-[Glu14,Lys17,Ser21,Glu35]-pramlintide] (H-KCNTATCATQRLAEFLK([AEEA-AEEA-γGlu-C18 diacid])HSSSNFGPILPPTNVGSETY-NH2; disulfide 2-7 (inferred); N-terminus and C-terminus assumed) | 8.43 nM | 1.75 nM | >45 h | >45 h | >45 h | >45 h | > 200 µM | > 200 µM | > 200 µM | > 200 µM | > 200 µM | > 200 µM | > 200 µM | > 200 µM | > 200 µM | > 200 µM | > 200 µM | > 200 µM | > 200 µM |  |
| CC[C@H](C)[C@H](NC(=O)[C@@H]1CCCN1C(=O)CNC(=O)[C@H](Cc1ccccc1)NC(=O)[C@H](CC(N)=O)NC(=O)[C@H](CC(N)=O)NC(=O)[C@H](CO)NC(=O)[C@H](CO)NC(=O)[C@H](Cc1c[nH]cn1)NC(=O)[C@H](Cc1c[nH]cn1)NC(=O)[C@H](CC(C)C)NC(=O)[C@H](Cc1ccccc1)NC(=O)[C@H](CCC(=O)O)NC(=O)[C@H](C)NC(=O)[C@H](CC(C)C)NC(=O)[C@H](CCCNC(=N)N)NC(=O)[C@H](CCC(N)=O)NC(=O)[C@@H](NC(=O)[C@H](C)NC(=O)[C@@H]1CSSC[C@H](NC(=O)[C@H](CCCNC(=N)N)NC(=O)CNC(=O)CC[C@H](NC(=O)CCCCCCCCCCCCCCCCCCC(=O)O)C(=O)O)C(=O)N[C@@H](CC(N)=O)C(=O)N[C@@H]([C@@H](C)O)C(=O)N[C@@H](C)C(=O)N[C@@H]([C@@H](C)O)C(=O)N1)[C@@H](C)O)C(=O)N[C@@H](CC(C)C)C(=O)N1CCC[C@H]1C(=O)N1CCC[C@H]1C(=O)N[C@H](C(=O)N[C@@H](CC(N)=O)C(=O)N[C@H](C(=O)NCC(=O)N[C@@H](CO)C(=O)N[C@@H](Cc1c[nH]cn1)C(=O)N[C@H](C(=O)N[C@@H](Cc1ccc(O)cc1)C(N)=O)[C@@H](C)O)C(C)C)[C@@H](C)O [Example 100, N-alpha-[(S)-4-Carboxy-4-(19-carboxynonadecanoylamino)butyryl]-Gly-[Arg1,Glu14,His17,His35]-pramlintide] ({C20 diacid-γGlu}-GRCNTATCATQRLAEFLHHSSNNFGPILPPTNVGSHTY-NH2; disulfide 3-8 (inferred)) |  | 0.0675 nM |  |  | 26 h | 26 h | > 200 µM | 28 µM (≈ 128 µg/mL) |  |  |  | 9 µM (≈ 41.1 µg/mL) |  | 30 µM (≈ 137 µg/mL) | 95 µM (≈ 434 µg/mL) | > 200 µM | > 200 µM | > 200 µM | > 200 µM | 0.0895 nM |
